23 molecules from ChEMBL document CHEMBL5223119, “Discovery of pyrrolo[2,3-d]pyrimidine-based molecules as a Wee1 inhibitor template” (Bioorg Med Chem Lett, 2022) can be followed below.

Data set [1] is described as follows: Cmax in rat at 5 mg/kg,IG measured upto 24 hrs by LC-MS/MS analysis. The note with it: in vivo, po. It counts as ADME, organism-based. Further details: dose 5 mg/kg, time < 24 hrs, route ig.
The test system of the next data set is NCI-H1299. Put plainly: Antiproliferative activity against human NCI-H1299 cells assessed as cell growth inhibition incubated for 3 days by CellTiter-Glo Luminescent assay. It counts as functional, cell-based. The settings on record: NCI-H1299, 72 h. Background: Cellular ATP, detected with luciferase, serves as a proxy for viable cell number.
Data set [2] in a line: AUC (0-infinity) in rat at 5 mg/kg,IG measured upto 24 hrs by LC-MS/MS analysis. It counts as ADME, organism-based. The arrangement: dose 5 mg/kg, time < 24 hrs, route ig. The note with it: in vivo, po.
A short description of data set [3]: Half life in rat at 5 mg/kg,IG measured upto 24 hrs by LC-MS/MS analysis. The settings on record: in vivo, po. The data set is classed as ADME, organism-based.
For another data set, the target named is Wee1-like protein kinase (Homo sapiens, UniProt P30291). Put plainly: Inhibition of Wee1 (unknown origin) incubated for 60 mins by LanthaScreen Eu-Kinase binding assay. On the technique in general: In TR-FRET formats the signal depends on donor and acceptor labels being close together.
Wee1-like protein kinase, sequence (P30291 whole entry): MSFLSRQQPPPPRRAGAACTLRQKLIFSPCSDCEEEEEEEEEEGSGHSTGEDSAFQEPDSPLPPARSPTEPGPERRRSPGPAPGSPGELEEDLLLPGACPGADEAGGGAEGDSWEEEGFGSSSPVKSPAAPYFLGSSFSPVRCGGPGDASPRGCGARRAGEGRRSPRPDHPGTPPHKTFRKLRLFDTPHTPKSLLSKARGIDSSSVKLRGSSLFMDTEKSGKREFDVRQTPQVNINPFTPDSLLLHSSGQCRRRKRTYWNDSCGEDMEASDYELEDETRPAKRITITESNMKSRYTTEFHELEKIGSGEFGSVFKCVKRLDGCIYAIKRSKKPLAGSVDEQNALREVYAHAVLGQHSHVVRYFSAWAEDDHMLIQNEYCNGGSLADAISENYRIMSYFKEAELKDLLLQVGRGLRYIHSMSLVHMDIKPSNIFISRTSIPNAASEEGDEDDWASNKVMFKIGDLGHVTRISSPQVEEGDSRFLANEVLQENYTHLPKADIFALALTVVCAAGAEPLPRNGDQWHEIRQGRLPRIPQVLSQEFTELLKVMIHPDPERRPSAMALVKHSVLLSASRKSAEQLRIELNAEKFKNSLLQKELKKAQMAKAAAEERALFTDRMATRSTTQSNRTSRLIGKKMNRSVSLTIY
A short description of data set [4]: Tmax in rat at 5 mg/kg,IG measured upto 24 hrs by LC-MS/MS analysis. The data set is classed as ADME, organism-based. The note with it: in vivo, po.

Structures are written as SMILES.

A word on the Cmax: it is the peak of the concentration-time curve. By IC50 is commonly meant the concentration needed to halve the response being measured. In general, AUC(0-inf) refers to total exposure, with the tail of the curve extrapolated. Low values mean low exposure, high ones high exposure. As usually defined, the half-life is the time in which the quantity being followed falls by half. Usually Tmax stands for the time at which the peak concentration occurs.

On to `CN1CCN(C2CCN(c3ccc(Nc4ncc5c(F)c(C6CC6)n(-c6cccc(C(C)(C)O)n6)c5n4)cc3F)CC2)CC1`, for which the highest concentration (Cmax) in data set [1] is 117 ng/mL. In addition, the IC50 in the data set with NCI-H1299 worked out at 623 nM; at Wee1-like protein kinase, 10.6 nM. The area under the curve AUC(0-inf) in data set [2] came out at 4580 ng·h/mL. Further, in data set [3], the half-life is 33.4 h. In addition, in data set [4], the Tmax stood at 6.7 h.
In the case of `CN1CCC2(CC1)CCN(c1ccc(Nc3ncc4cc(C5CC5)n(-c5cccc(C(C)(C)O)n5)c4n3)cc1)CC2`, in data set [1], the Cmax came to 163 ng/mL. Moreover, the IC50 in the data set on NCI-H1299 worked out at 199 nM. Besides, in data set [2], the area under the curve AUC(0-inf) came out at 4070 ng·h/mL. In data set [3], this molecule gave a half-life of 19.2 h. Also, the Tmax in data set [4] turned out to be 4.8 h.
In the case of `CCCc1c(F)c2cnc(Nc3ccc(N4CCOCC4)cc3)nc2n1-c1cccc(N=S(C)(C)=O)n1`, the 50% inhibitory concentration (IC50) with NCI-H1299 was found to be 332 nM; at Wee1-like protein kinase it was 3.37 nM.
In the same order, the values of `CN1CCN(c2ccc(Nc3ncc4c(F)c(C5CC5)n(-c5cccc(C(C)(C)O)n5)c4n3)cc2)CC1` are 288 nM and 38.2 nM.
Turning to `Cc1cc2cnc(Nc3ccc(N4CCN(C)CC4)cc3)nc2n1-c1cccc(N=S(C)(C)=O)n1`, the IC50 in the data set with NCI-H1299 was determined as 59 nM.
As for `CN1CCN(C2CCN(c3ccc(Nc4ncc5c(F)c(C6CC6)n(-c6cccc(C(C)(C)O)n6)c5n4)cc3)CC2)CC1`, the highest level in data set [1] (Cmax) was 83 ng/mL. The figures for the IC50 with NCI-H1299 and at Wee1-like protein kinase were 211 nM and 0.86 nM, respectively. Moreover, the total exposure AUC(0-inf) in data set [2] was 1750 ng·h/mL. The half-life in data set [3] was 10.9 h. For the same molecule, the Tmax in data set [4] stood at 6 h.
Consider `CCCc1cc2cnc(Nc3ccc(N4CCN(C)CC4)cc3)nc2n1-c1cccc(C(C)(C)O)n1`, for which the 50% inhibitory concentration (IC50) with NCI-H1299 came out at 126 nM.
`CCc1cc2cnc(Nc3ccc(N4CCN(C)CC4)cc3)nc2n1-c1cccc(C(C)(C)O)n1` had an IC50 at Wee1-like protein kinase of 0.1 nM.
With `CC(C)c1cc2cnc(Nc3ccc(N4CCN(C)CC4)cc3)nc2n1-c1cccc(N=S(C)(C)=O)n1`, the IC50 in the data set with NCI-H1299 was determined as 100 nM.
As to `CC(C)c1cc2cnc(Nc3ccc(N4CCN(C)CC4)cc3)nc2n1-c1cccc(C(C)(C)O)n1`, the concentration for half-maximal inhibition (IC50) in the data set on NCI-H1299 was determined as 91 nM; at Wee1-like protein kinase it was 0.42 nM.
For `CN1CCN(C2CCN(c3ccc(Nc4ncc5cc(C6CC6)n(-c6cccc(N=S(C)(C)=O)n6)c5n4)cc3)CC2)CC1`, the IC50 in the data set on NCI-H1299 is 156 nM; at Wee1-like protein kinase, 2.54 nM.
With `CCCc1cc2cnc(Nc3ccc(N4CCC(N5CCN(C)CC5)CC4)cc3)nc2n1-c1cccc(N=S(C)(C)=O)n1`, the half-maximal inhibitory concentration (IC50) in the data set on NCI-H1299 was 87 nM.
On to `CN1CCN(C2CCN(c3ccc(Nc4ncc5cc(C6CC6)n(-c6cccc(C(C)(C)O)n6)c5n4)cc3)CC2)CC1`, for which the concentration for half-maximal inhibition (IC50) was found to be 105 nM in the data set with NCI-H1299 and 1.33 nM at Wee1-like protein kinase.
As for `Cc1cc2cnc(Nc3ccc(N4CCN(C)CC4)cc3)nc2n1-c1cccc(C(C)(C)O)n1`, the peak level in data set [1] (Cmax) was 125 ng/mL. The molecule further yielded an AUC(0-inf) in data set [2] of 710 ng·h/mL. For the same molecule, in data set [3], the half-life is 3.56 h. Moreover, in data set [4], the Tmax was found to be 1 h.
For `CN1CCN(c2ccc(Nc3ncc4cc(C5CC5)n(-c5cccc(N=S(C)(C)=O)n5)c4n3)cc2F)CC1`, the 50% inhibitory concentration (IC50) in the data set with NCI-H1299 was found to be 42 nM.
In turn, `CCc1cc2cnc(Nc3ccc(N4CCN(C)CC4)cc3)nc2n1-c1cccc(N=S(C)(C)=O)n1` gave a maximum concentration (Cmax) in data set [1] of 8.1 ng/mL. For the same molecule, the 50% inhibitory concentration (IC50) in the data set with NCI-H1299 amounted to 23 nM. This molecule came in with a total exposure AUC(0-inf) in data set [2] of 48 ng·h/mL. This molecule also gave a half-life in data set [3] of 2.24 h. Also, the Tmax in data set [4] was 2.67 h.
The matching figures for `CCCc1c(F)c2cnc(Nc3ccc(N4CCN(C)CC4)cc3)nc2n1-c1cccc(N=S(C)(C)=O)n1`: 36.8 ng/mL, 43 nM, 314 ng·h/mL, 4.58 h and 1.67 h.
Consider `COCc1cc2cnc(Nc3ccc(N4CCN(C)CC4)cc3)nc2n1-c1cccc(N=S(C)(C)=O)n1`, for which the IC50 in the data set on NCI-H1299 turned out to be 101 nM; at Wee1-like protein kinase it was 2.03 nM.
The matching figures for `CCCc1c(F)c2cnc(Nc3ccc(N4CCN(C)CC4)cc3)nc2n1-c1cccc(C(C)(C)O)n1`: 1720 nM and 9.3 nM.
In turn, `CN1CCN(c2ccc(Nc3ncc4cc(C5CC5)n(-c5cccc(N=S(C)(C)=O)n5)c4n3)cc2)CC1` registered a peak concentration (Cmax) in data set [1] of 76.9 ng/mL. The IC50 amounted to 42 nM in the data set with NCI-H1299 and 0.92 nM at Wee1-like protein kinase. For the same molecule, in data set [2], the AUC(0-inf) amounted to 286 ng·h/mL. The half-life in data set [3] was 8.26 h. Besides, the Tmax in data set [4] was 0.92 h.
In data set [1], `CCCc1cc2cnc(Nc3ccc(N4CCN(C)CC4)cc3)nc2n1-c1cccc(N=S(C)(C)=O)n1` registered a Cmax of 29.4 ng/mL. The IC50 with NCI-H1299 was 33 nM. The molecule further had an AUC(0-inf) in data set [2] of 188 ng·h/mL. In data set [3], this molecule had a half-life of 3.24 h. For the same molecule, the Tmax in data set [4] came to 2.33 h.
For the molecule `CCCc1cc2cnc(Nc3ccc(N4CCOCC4)cc3)nc2n1-c1cccc(N=S(C)(C)=O)n1`, the concentration for half-maximal inhibition (IC50) in the data set on NCI-H1299 is 451 nM; on Wee1-like protein kinase, 8.3 nM.
`C=CCn1c(=O)c2cnc(Nc3ccc(N4CCN(C)CC4)cc3)nc2n1-c1cccc(C(C)(C)O)n1` [ADAVOSERTIB]: the 50% inhibitory concentration (IC50) in the data set with NCI-H1299 is 104 nM.
